The target of data set [1] is T1, murine MC1R expressed in the B16/F1 cells (Mus musculus, UniProt Q01727).
T1 construct: endogenous in cells; host or cells: B16/F1 mouse melanoma cells (live, whole cells)
Nature of the data set: Competitive binding (ligand displacement) with 125I-NDP-MSH on whole B16/F1 cells. Conditions: displacement of 125I-NDP-MSH, n = 3. The procedure: [Nle^4,d-Phe^7]-melanocyte-stimulating hormone (NDP-MSH) was iodinated with Na^125I by the chloramine-T method and it was purified from unlabeled peptide by HPLC as described before. Saturation and competitive binding studies were performed with live cells. 40.000 B16/F1 cells were seeded per well into a 96-well flat bottom cell culture plate. For competitive binding, medium was removed and 50 μL of binding buffer (50 mM 4-(2-hydroxyethyl)-1-piperazineethanesulfonic acid (HEPES) pH 7.4, 5 mM MgCl2, 1 mM CaCl2, 0.5% BSA, protease inhibitor cocktail cOmplete [Roche Applied Science, Penzberg, Germany]) with increasing concentrations of non-radioactive peptide was added to the cells. Additionally, 50 μL binding buffer with 100,000 counts per minute (cpm) of ^125I-NDP-MSH was added. After 30 minutes of incubation at 37°C, cells were washed 4 times with cold washing buffer (50 mM Tris-HCl pH 7.4, 125 mM NaCl, 0.05% BSA). 100 μL 1 N NaOH was added to lyse cells. Lysates were transferred into vials and measured using a gamma counter (Wallac 1470 Wizard, PerkinElmer, Waltham, MA, USA). The saturation assay was performed by adding 100 μL of binding buffer with increasing amounts of ^125I-NDP-MSH to the cells in the presence or absence of 1 μM of unlabeled NDP-MSH.

Data set [2] concerns tumor. Conditions: 4 h p.i., 111In and 67Ga labels; cited from earlier work.
Data set [3] can be described thus: In vivo biodistribution in B16/F1 xenograft-bearing nude mice. More on the design: species or system mouse. Conditions: NMRI-Foxn1nu/Foxn1nu, mouse, iv, 5 MBq, total radioactivity; for tissue uptake at 1 h: 1 h after i.v. injection; for tissue to tissue ratio at 1 h: Fig 3. The procedure: (§1) B16/F1 cells (3x10^6) in a volume of 150 μL 0.9% NaCl were inoculated subcutaneously on the right shoulder of NMRI-Foxn1^nu /Foxn1^nu mice (Janvier Labs, Saint-Berthevin, France). After 1–2 weeks of growth, tumor bearing mice were injected with approximately 5 MBq of ^68Ga-DOTA-NAPamide in a volume of 100 μL 0.9% NaCl into a lateral tail vein via a catheter. Mice were sacrificed and dissected 1 h after injection. The B16F1 tumor, blood, stomach, pancreas, small intestine, colon, liver, spleen, kidney, heart, lung, muscle and femur samples were weighed and uptake of radioactivity was measured by a gamma counter (Wallac 1470 Wizard, Perkin Elmer, Waltham, MA, USA). To determine the effect of unlabeled ligand on tumor uptake, either 50 pmol or 500 pmol non-labeled DOTA-NAPamide were co-injected.

The test system of data set [4] is MC1R-expressing B16/F1 tumor xenografts. The description is as above. More on the design: species or system mouse. The procedure: as §1
A short description of data set [5]: In vivo PET/MRI imaging of mice bearing B16/F1 tumors (SUV by VOI). Conditions: NMRI-Foxn1nu/Foxn1nu, mouse, B16/F1 tumor, iv, total radioactivity; for SUV: dynamic PET; for SUV at 1 h: 1 h post injection, n = 1. Set-up: species or system mouse. How it is done: (§2) B16/F1 cells (3x10^6) in a volume of 150 μL 0.9% NaCl were inoculated subcutaneously on the right shoulder of NMRI-Foxn1^nu /Foxn1^nu mice (Janvier Labs, Saint-Berthevin, France). After 1–2 weeks of growth, tumor bearing mice were injected with approximately 15 MBq of ^68Ga-DOTA-NAPamide in a volume of approximately 150 μL 0.9% NaCl into a lateral tail vein via a catheter. Positron emission tomography (PET) / magnetic resonance imaging (MRI) (1 Tesla nanoScan PET/MRI Mediso, Budapest, Hungary) was performed at Berlin Experimental Radionuclide Imaging Center (BERIC), Charité –Universitätsmedizin Berlin. Anatomic MRI scans were acquired using a T2-weighted 2D fast spin echo sequence (T2 FSE 2D) with the following parameters: coronal sequentially, matrix 256x256x20 with dimensions 0.36x0.36x1.5mm^3, TR: 8695 ms, TE: 103 ms, and a flip angle of 180°. PET scans were performed for 90 min starting directly before intravenous injection of tracer. PET images were reconstructed from the raw data with the following image sequence: 6 x 10 s, 6 x 30 s, 5 x 60 s and 8 X 600 s. The tracer standardized uptake value (SUV) in the tumor tissue was determined by manual contouring of a volume of interest (VOI) of the PET images using PMOD 3.610 (PMOD Technologies, Zürich, Switzerland).

Data set [6] relates to B16/F1 tumors. The description is as above. Conditions: dynamic PET, all tested conditions, after injection. Set-up: species or system mouse. How it is done: as §2
Where [7] appears, read: B16/F1 cells, Fig 1B (impact of gallium chelation).

This is an account of results in PMC6548402, “Increasing molar activity by HPLC purification improves ^68Ga-DOTA-NAPamide tumor accumulation in a B16/F1 melanoma xenograft model” (PLoS ONE, 2019).

Like-named read-outs stand apart in the source and are kept apart here.

By Ki is commonly meant the dissociation constant of the complex between target and ligand, obtained from inhibition or displacement. A lower Ki goes with higher affinity.

T1 sequence (Q01727 whole entry): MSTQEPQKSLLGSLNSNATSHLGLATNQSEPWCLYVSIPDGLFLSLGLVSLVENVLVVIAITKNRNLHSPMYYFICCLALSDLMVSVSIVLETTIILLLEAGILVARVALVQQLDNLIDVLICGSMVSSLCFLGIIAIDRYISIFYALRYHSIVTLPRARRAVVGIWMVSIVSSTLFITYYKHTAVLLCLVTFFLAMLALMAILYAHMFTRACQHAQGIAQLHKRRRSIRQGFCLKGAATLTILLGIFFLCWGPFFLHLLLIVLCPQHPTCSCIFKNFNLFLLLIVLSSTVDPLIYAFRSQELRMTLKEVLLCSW

Compound “Ga-labeled DOTA-NAPamide: DOTA-NAPamide complexed with non-radioactive Ga (XDHFRWGK; Linear alpha-MSH analogue Ac-Nle-Asp-His-D-Phe-Arg-Trp-Gly-Lys(DOTA)-NH2: N-terminal acetyl; X1 = norleucine; D-Phe4; Lys8 side chain conjugated to DOTA chelating non-radioactive Ga; C-terminal amide)” displayed a Ki in data set [1] (setting [7]) of 0.43 nM.

Turning to `CCCC[C@H](NC(C)=O)C(=O)N[C@@H](CC(=O)O)C(=O)N[C@@H](Cc1c[nH]cn1)C(=O)N[C@H](Cc1ccccc1)C(=O)N[C@@H](CCCNC(=N)N)C(=O)N[C@@H](Cc1c[nH]c2ccccc12)C(=O)NCC(=O)N[C@@H](CCCCNC(=O)CN1CCN(CC(=O)O)CCN(CC(=O)O)CCN(CC(=O)O)CC1)C(N)=O` [DOTA-NAPamide, Acetyl-Nle-Asp-His-D-Phe-Arg-Trp-Gly-Lys(DOTA)-NH2], the Ki in data set [1] (setting [7]) is 0.4 nM; in data set [1] (whole B16/F1 cells, Fig 1A), 0.37 nM. Further, the tumor uptake in data set [2] was 7.56% to 9.43%.

Take `CCCC[C@H](NC(C)=O)C(=O)N[C@@H](CC(=O)O)C(=O)N[C@@H](Cc1c[nH]cn1)C(=O)N[C@H](Cc1ccccc1)C(=O)N[C@@H](CCCNC(=N)N)C(=O)N[C@@H](Cc1c[nH]c2ccccc12)C(=O)NCC(=O)N[C@@H](CCCCNC(=O)CN1CCN(CC(=O)O)CCN(CC(=O)O)CCN(CC(=O)O)CC1)C(N)=O` [68Ga-DOTA-NAPamide, metal not drawn]: the tissue uptake at 1 h is 7 %ID/g in data set [3] (B16/F1 tumor, HPLC-purified tracer, ~5 MBq, ± 95% CI, n = 7, read-out: tumor uptake); 0.78 %ID/g in data set [3] (B16/F1 tumor, non-purified tracer (standard procedure), ~5 MBq, ± 95% CI, n = 7, read-out: tumor uptake); less than 0.5 %ID/g in data set [3] (all other tissues (except tumor and kidneys), mostly below, read-out: uptake in all other tissues (except tumor and kidneys)). In addition, the tissue to tissue ratio at 1 h in data set [3] (tumor / all other organs investigated, HPLC-purified tracer, read-out: tumor-to-tissue ratios for all other organs investigated) was greater than 15; in data set [3] (tumor / kidney, HPLC-purified tracer, read-out: tumor-to-kidney ratio), 2.33. For the same compound, the “decrease in tumor uptake vs purified tracer alone” value in data set [4] (500 pmol coinjected unlabeled peptide, 1 h) is “approximately 6 fold”. Besides, the “increase in tumor uptake, purified vs non-purified” value in data set [4] (1 h post injection) was “more than 8 fold”. In addition, the tumor uptake in data set [4] (HPLC-purified tracer, 1 h after i.v. injection, ~5 MBq, ± 95% CI, n = 7) is 7.0% ± 1.7%; in data set [4] (non-purified tracer (standard procedure), 1 h after i.v. injection, ~5 MBq, ± 95% CI, n = 7), 0.78% ± 0.55%; in data set [4] (purified tracer + coinjection of 50 pmol (1,000-fold) cold DOTA-NAPamide, 1 h, Fig 4, n = 3, ± 95% CI) it was 3.8% ± 3.6%; in data set [4] (purified tracer + coinjection of 500 pmol (10,000-fold) cold DOTA-NAPamide, 1 h, Fig 4, n = 3, ± 95% CI), 1.1% ± 0.5%; in data set [4] (purified tracer alone, 5 MBq (~50 fmol), 1 h, Fig 4, n = 3, ± 95% CI), 6.7% ± 1.9%. The kidney uptake in data set [4] (purified tracer, 1 h after i.v. injection, ± 95% CI) is recorded as 3.0% ± 0.6%; in data set [4] (standard procedure (non-purified), 1 h after i.v. injection, ± 95% CI) it was 4.6% ± 2.7%. Further, the SUV came to 0.43 SUV in data set [5] (15 MBq, the other tumors (other three formulations), read-out: initial amount of radioactivity in the tumor (mean SUV)) and 0.63 SUV in data set [5] (animal with 1,000-fold excess of cold peptide mass, read-out: initial amount of radioactivity in the tumor (SUV)). The SUV at 1 h in data set [5] (15 MBq, purified tracer) amounted to 0.42 SUV; in data set [5] (15 MBq, unpurified tracer (standard procedure)) it was 0.119 SUV; in data set [5] (purified + 1,000-fold excess of cold peptide), 0.367 SUV; in data set [5] (purified + 10,000-fold excess of unlabeled peptide), 0.152 SUV. Besides, the “time to maximum tracer level in the tumors” value in data set [6] was 5 to 10 min.
